These results are taken from paper PMC9080233, “Synthesis and biological evaluation of novel quinolone derivatives dual targeting histone deacetylase and tubulin polymerization as antiproliferative agents” (RSC Advances, 2018).

The target of data set [1] is T1, human recombinant HDAC2 (Homo sapiens, UniProt Q92769).
T1 construct: purchased BPS Bioscience, CA
Nature of the data set: HDAC activity assay (fluorogenic HDAC assay kit), HDAC2. To be noted: human recombinant HDAC2, 37 °C, 30 min. Type of data set: biochemical.
Experimental: (§2) HDAC activity was measured using fluorogenic HDACs assay kit (BPS Bioscience, CA) according to the manufacturer's protocol. […] Fluorescence values were measured at an excitation of 350 nm and an emission of 440 nm using SpectraMax M2 microplate reader. IC50 values were calculated using Origin software. IC50 values were determined using nonlinear regression analysis.

Data set [2] relates to human cervical carcinoma cells HeLa. In words: Antiproliferative activity, CCK-8 assay, HeLa. The data set is classed as cell-based. To be noted: CCK-8, 72 hours, mean ± SD, read-out: IC50 HeLa. The procedure:
(§1) Antitumor activities in vitro of synthetic compounds were measured using CCK-8 Assay Kit (BPS Bioscience, CA) according to the manufacturer's protocol. Cells were plated into 96-well plates with appropriate test compounds for 72 hours. Control cells were treated with serum free medium. Then CCK-8 solution was added to each well to determine cell viability. The IC50 values were calculated according to the dose-dependent curves (Origin software). IC50 values were determined using nonlinear regression analysis.

The subject of data set [3] is human lung adenocarcinoma cells A549. In words: Antiproliferative activity, CCK-8 assay, A549. To be noted: CCK-8, 72 hours, mean ± SD. The data set is classed as cell-based. For orientation: Tetrazolium dyes change colour on reduction, which living cells bring about.
Experimental: (§3) Antitumor activities in vitro of synthetic compounds were measured using CCK-8 Assay Kit (BPS Bioscience, CA) according to the manufacturer's protocol. […] Control cells were treated with serum free medium. Then CCK-8 solution was added to each well to determine cell viability. The IC50 values were calculated according to the dose-dependent curves (Origin software). IC50 values were determined using nonlinear regression analysis.
Data set [4] deals with tubulin. In words: Tubulin polymerization assay. Type of data set: biochemical. The settings on record: in words.
Experimental: Tubulin polymerization assay was performed using a fluorescence-based tubulin polymerization assay Kit (BK011, Cytoskeleton, Inc.) according to the manufacturer's protocol. […] After addition of polymerization buffer and 0.4 mM GTP, the reaction mixtures were transferred to 0 °C cuvettes in a recording spectrophotometer. […] Data from each well was normalized relative to initial readings,[43] and plots of ΔODmax (final−initial values) against compound concentration, expressed relative to vehicle control (DMSO only), were used to calculate IC50 values.[44] IC50 values were determined using nonlinear regression analysis.
Data set [5] has as its system healthy MCF-10A cells. Nature of the data set: Toxicity to healthy cells, CCK-8 assay, MCF-10A. To be noted: Homo sapiens, MCF-10A; healthy cells, CCK-8, 72 hours; >100 = not determinable up to highest concentrations tested. The data set is classed as cell-based.
Experimental: as §3
Data set [6] deals with prostate cancer cells PC-3. In words: Antiproliferative activity, CCK-8 assay, PC-3. The data set is classed as cell-based. To be noted: Homo sapiens; CCK-8, 72 hours; mean ± SD.
Experimental: as §3
Data set [7] has as its system breast cancer cells MCF-7. Nature of the data set: Antiproliferative activity, CCK-8 assay, MCF-7. The data set is classed as cell-based. The settings on record: Homo sapiens, MCF7; CCK-8, 72 hours; mean ± SD.
Experimental: as §3
Data set [8] deals with T2, human recombinant HDAC6 (Homo sapiens, UniProt Q9UBN7).
T2 construct: purchased BPS Bioscience, CA
T2 sequence (Q9UBN7 1-1215): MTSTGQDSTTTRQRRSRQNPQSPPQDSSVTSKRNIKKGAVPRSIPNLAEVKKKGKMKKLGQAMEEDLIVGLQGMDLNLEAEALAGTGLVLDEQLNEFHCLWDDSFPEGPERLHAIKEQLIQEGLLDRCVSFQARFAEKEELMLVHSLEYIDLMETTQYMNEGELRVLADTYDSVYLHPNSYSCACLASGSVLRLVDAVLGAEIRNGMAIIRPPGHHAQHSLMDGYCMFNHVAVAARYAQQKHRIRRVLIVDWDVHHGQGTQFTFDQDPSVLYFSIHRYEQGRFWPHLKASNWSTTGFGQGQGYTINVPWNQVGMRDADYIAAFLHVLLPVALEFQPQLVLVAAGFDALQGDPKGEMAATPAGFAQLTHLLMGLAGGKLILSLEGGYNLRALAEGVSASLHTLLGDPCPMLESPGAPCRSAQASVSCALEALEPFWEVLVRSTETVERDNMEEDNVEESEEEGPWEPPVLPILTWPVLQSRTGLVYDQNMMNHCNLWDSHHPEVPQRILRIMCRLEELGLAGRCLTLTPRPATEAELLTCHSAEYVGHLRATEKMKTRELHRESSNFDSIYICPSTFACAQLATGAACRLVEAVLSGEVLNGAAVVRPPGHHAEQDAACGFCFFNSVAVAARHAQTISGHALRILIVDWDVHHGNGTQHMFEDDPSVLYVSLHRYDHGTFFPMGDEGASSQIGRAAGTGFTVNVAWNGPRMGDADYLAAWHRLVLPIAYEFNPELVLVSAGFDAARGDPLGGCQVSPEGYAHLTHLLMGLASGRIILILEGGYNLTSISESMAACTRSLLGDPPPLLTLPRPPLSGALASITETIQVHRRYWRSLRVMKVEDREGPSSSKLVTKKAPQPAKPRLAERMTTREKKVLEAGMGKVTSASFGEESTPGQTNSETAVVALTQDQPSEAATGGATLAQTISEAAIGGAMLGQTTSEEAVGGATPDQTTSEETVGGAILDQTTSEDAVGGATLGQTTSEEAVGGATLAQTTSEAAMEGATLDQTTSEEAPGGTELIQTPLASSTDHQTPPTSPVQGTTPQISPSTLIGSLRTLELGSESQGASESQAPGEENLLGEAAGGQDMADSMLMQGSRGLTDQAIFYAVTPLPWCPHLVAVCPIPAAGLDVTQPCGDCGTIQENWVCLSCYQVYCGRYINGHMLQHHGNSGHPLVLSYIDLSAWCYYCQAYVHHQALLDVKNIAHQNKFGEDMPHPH
In words: HDAC activity assay (fluorogenic HDAC assay kit), HDAC6.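 As to all read-outs here: underlying HDAC activity read as fluorescence, excitation 350 nm and emission 440 nm.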 Type of data set: biochemical. The settings on record: for IC50: human recombinant HDAC6, 37 °C, 30 min; for Selectivity index HDAC6/1: ratio of IC50 HDAC1 to IC50 HDAC6; for Selectivity index HDAC6/2: ratio of IC50 HDAC2 to IC50 HDAC6.
Experimental: as §2

Data set [9] addresses T3, human recombinant HDAC1 (Homo sapiens, UniProt Q13547).
T3 construct: purchased BPS Bioscience, CA
Nature of the data set: HDAC activity assay (fluorogenic HDAC assay kit), HDAC1. Type of data set: biochemical. The settings on record: human recombinant HDAC1, 37 °C, 30 min.
Experimental: as §2

Data set [10] relates to liver cancer cells HepG2. In words: Antiproliferative activity, CCK-8 assay, HepG2. Type of data set: cell-based. To be noted: Homo sapiens, CCK-8, 72 hours, mean ± SD.
Experimental: as §3
Data set [11] has as its system five cancer cells, A549, HepG2, MCF-7, PC-3, HeLa. Nature of the data set: Antiproliferative activity, CCK-8 assay, statements on all five cancer cell lines. Type of data set: cell-based, human. As to the method:
as §1

T3 sequence (Q13547 whole entry): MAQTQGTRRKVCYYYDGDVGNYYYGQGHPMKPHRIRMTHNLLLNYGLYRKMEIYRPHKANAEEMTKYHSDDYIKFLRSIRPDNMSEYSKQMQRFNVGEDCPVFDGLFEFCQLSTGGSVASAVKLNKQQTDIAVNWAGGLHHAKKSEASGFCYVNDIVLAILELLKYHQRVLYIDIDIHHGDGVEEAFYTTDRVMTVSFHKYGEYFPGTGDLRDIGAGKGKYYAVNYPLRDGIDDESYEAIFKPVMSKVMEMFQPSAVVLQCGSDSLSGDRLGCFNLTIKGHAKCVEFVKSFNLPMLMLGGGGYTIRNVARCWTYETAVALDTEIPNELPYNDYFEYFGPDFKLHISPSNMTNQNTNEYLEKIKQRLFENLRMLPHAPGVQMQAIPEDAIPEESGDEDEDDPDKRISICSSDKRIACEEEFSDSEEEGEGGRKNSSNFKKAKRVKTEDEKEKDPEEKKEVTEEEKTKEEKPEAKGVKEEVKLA
tubulin, sequence (P02550 whole entry): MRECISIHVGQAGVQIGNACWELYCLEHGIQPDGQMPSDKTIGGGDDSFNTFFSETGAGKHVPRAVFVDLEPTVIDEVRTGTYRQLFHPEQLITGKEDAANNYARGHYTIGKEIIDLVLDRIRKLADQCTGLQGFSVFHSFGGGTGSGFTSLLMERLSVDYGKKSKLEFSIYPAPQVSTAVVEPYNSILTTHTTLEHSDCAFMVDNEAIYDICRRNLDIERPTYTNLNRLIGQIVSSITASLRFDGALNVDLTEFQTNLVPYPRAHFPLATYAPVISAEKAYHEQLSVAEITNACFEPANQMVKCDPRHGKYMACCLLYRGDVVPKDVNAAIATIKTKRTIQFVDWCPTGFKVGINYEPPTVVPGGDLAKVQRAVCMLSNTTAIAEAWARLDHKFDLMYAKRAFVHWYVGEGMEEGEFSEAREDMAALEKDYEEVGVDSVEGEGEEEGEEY
tubulin, sequence (P02554 whole entry, further chain): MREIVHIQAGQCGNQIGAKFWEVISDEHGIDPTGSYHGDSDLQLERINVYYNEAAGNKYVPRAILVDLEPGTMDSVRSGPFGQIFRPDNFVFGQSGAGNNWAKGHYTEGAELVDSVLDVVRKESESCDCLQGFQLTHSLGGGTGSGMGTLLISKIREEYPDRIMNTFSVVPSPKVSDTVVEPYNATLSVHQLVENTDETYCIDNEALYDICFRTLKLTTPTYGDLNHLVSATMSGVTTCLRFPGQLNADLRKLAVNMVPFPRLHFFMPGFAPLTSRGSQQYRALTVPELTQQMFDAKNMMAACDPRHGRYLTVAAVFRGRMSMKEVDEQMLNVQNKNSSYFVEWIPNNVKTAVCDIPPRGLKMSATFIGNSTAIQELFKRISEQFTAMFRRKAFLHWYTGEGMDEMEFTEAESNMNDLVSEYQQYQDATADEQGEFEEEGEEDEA
T1 sequence (Q92769 whole entry): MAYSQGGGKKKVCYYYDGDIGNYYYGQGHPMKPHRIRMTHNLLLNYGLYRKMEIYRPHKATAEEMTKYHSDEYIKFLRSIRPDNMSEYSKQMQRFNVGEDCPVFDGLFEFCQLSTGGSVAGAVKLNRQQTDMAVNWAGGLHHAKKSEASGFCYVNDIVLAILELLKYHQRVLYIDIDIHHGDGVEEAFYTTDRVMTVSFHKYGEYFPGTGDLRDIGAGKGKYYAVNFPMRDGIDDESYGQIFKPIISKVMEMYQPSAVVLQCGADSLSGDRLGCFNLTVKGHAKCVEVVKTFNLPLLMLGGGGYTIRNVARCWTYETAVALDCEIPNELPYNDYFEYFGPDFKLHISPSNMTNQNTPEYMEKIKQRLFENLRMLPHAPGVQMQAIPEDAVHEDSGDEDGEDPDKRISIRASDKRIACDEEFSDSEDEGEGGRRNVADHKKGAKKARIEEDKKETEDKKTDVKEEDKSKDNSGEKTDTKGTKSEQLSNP

By melting point is commonly meant the temperature, or range, at which the solid turns liquid. As for `C[C@H]1COc2c(N3CCN(C)CC3)c(F)cc3c(=O)c(C(=O)NCc4cn(CCCCCCC(=O)O)nn4)cn1c23` [Compound 7b, (S)-7-(4-((9-fluoro-3-methyl-10-(4-methylpiperazin-1-yl)-7-oxo-3,7-dihydro-2H-[1,4]oxazino[2,3,4-ij]quinoline-6-carboxamido)methyl)-1H-1,2,3-triazol-1-yl)heptanoic acid], the melting point lay in the range of 187 to 190 °C. Further, in [1], the IC50 was 4.6 ± 0.62 µM. The IC50 in [2] turned out to be 8.4 ± 0.62 µM. This molecule also showed an IC50 in [3] of 9.3 ± 0.82 µM. For the same molecule, the “tubulin polymerization inhibition compared with reference compound” value in data set [4] was “equipotent to reference compound CA-4”. Moreover, the IC50 in [5] was greater than 100 µM. This molecule registered an IC50 in [6] of 11.1 ± 1.16 µM. Also, the IC50 in data set [7] was 7.8 ± 0.71 µM. Besides, in data set [8], the IC50 stood at 1.1 ± 0.28 µM, the “Selectivity index HDAC6/1” value came out at 1.9 and the “Selectivity index HDAC6/2” value was determined as 4.2. Moreover, in data set [9], the IC50 amounted to 2.1 ± 0.37 µM. Also, the IC50 in data set [10] was found to be 9.9 ± 0.62 µM.

Consider `C[C@H]1COc2c(N3CCN(C)CC3)c(F)cc3c(=O)c(C(=O)NCc4cn(CCCCCCCC(=O)O)nn4)cn1c23` [Compound 7c, (S)-8-(4-((9-fluoro-3-methyl-10-(4-methylpiperazin-1-yl)-7-oxo-3,7-dihydro-2H-[1,4]oxazino[2,3,4-ij]quinoline-6-carboxamido)methyl)-1H-1,2,3-triazol-1-yl)octanoic acid], for which the melting point lay within 203 to 205 °C. Moreover, the IC50 in [1] was 6.9 ± 0.55 µM. Further, the IC50 in data set [2] worked out at 10.6 ± 0.24 µM. Further, in data set [3], the IC50 is 11.9 ± 1.06 µM. This molecule yielded an IC50 in data set [5] greater than 100 µM. In addition, in data set [6], the IC50 was 13.6 ± 1.29 µM. The same molecule registered an IC50 in data set [7] of 12.7 ± 1.18 µM. Besides, in data set [8], the IC50 is 2.7 ± 0.36 µM, the “Selectivity index HDAC6/1” value is 1.4 and the “Selectivity index HDAC6/2” value is given as 2.6. Further, in data set [9], the IC50 is 3.8 ± 0.46 µM. In addition, the IC50 in [10] is 11.3 ± 1.24 µM.

In the case of `C[C@H]1COc2c(N3CCN(C)CC3)c(F)cc3c(=O)c(C(=O)OCc4cn(CCCCCCC(=O)NO)nn4)cn1c23` [Compound 8b, (S)-(1-(7-(hydroxyamino)-7-oxoheptyl)-1H-1,2,3-triazol-4-yl)methyl-9-fluoro-3-methyl-10-(4-methylpiperazin-1-yl)-7-oxo-3,7-dihydro-2H-[1,4]oxazino[2,3,4-ij]quinoline-6-carboxylate], the IC50 in data set [1] is 0.082 ± 0.015 µM; in data set [2], 2.7 ± 0.17 µM; in [3] it was 3.5 ± 0.17 µM; in data set [5], greater than 100 µM; in [6], 8.5 ± 0.79 µM; in data set [7], 0.8 ± 0.15 µM. Also, the IC50 worked out at 0.03 ± 0.019 µM in data set [8], 0.067 ± 0.019 µM in data set [9] and 5.2 ± 0.56 µM in [10]. Further, in [4], the “tubulin polymerization inhibition compared with reference compound” value is recorded as “equipotent to reference compound CA-4”. Also, the “Selectivity index HDAC6/1” value in [8] is on record as 2.2. In addition, in data set [8], the “Selectivity index HDAC6/2” value came to 2.7.

Regarding `C[C@H]1COc2c(N3CCN(C)CC3)c(F)cc3c(=O)c(C(=O)NCc4cn(CCCCCC(=O)NO)nn4)cn1c23` [Compound 9a, (S)-9-Fluoro-N-((1-(6-(hydroxyamino)-6-oxohexyl)-1H-1,2,3-triazol-4-yl)methyl)-3-methyl-10-(4-methylpiperazin-1-yl)-7-oxo-3,7-dihydro-2H-[1,4]oxazino[2,3,4-ij]quinoline-6-carboxamide], the IC50 in data set [2] was 5.2 ± 0.82 µM; in [3] it was 5.6 ± 0.59 µM; in [5] it was greater than 100 µM; in data set [6], 9.6 ± 1.05 µM; in [7], 1.1 ± 0.26 µM; in data set [8], 0.049 ± 0.023 µM. For the same molecule, the IC50 in data set [9] was found to be 0.073 ± 0.045 µM; in data set [10] it was 6.6 ± 0.78 µM. Also, the “tubulin polymerization inhibition compared with reference compound” value in data set [4] was “equipotent to reference compound CA-4”. In addition, the “Selectivity index HDAC6/1” value in data set [8] is on record as 1.5. For the same molecule, the “Selectivity index HDAC6/2” value in [8] came to 1.7.

As to `C[C@H]1COc2c(N3CCN(C)CC3)c(F)cc3c(=O)c(C(=O)NCc4cn(CCCCCCC(=O)NO)nn4)cn1c23` [Compound 9b, (S)-9-Fluoro-N-((1-(7-(hydroxyamino)-7-oxoheptyl)-1H-1,2,3-triazol-4-yl)methyl)-3-methyl-10-(4methylpiperazin-1-yl)-7-oxo-3,7-dihydro-2H-[1,4]oxazino[2,3,4-ij]quinoline-6-carboxamide], the IC50 in [1] is 0.041 ± 0.014 µM; in data set [2], 1.1 ± 0.15 µM; in data set [3], 2.1 ± 0.26 µM; in data set [5], greater than 100 µM; in data set [6], 4.9 ± 0.43 µM; in data set [7], 0.3 ± 0.14 µM. Also, the IC50 in data set [8] came out at 0.021 ± 0.007 µM; in data set [9], 0.029 ± 0.018 µM; in data set [10] it was 2.3 ± 0.31 µM. In [11] (against all cancer cells), the “fold more potent than levofloxacin, antiproliferative activity” value was “over 20 fold”. In addition, in [4], the “tubulin polymerization inhibition compared with reference compound” value is “equipotent to reference compound CA-4”. In [8], the “Selectivity index HDAC6/1” value was 1.4. Further, the “Selectivity index HDAC6/2” value in data set [8] is listed as 2.0.

`C[C@H]1COc2c(N3CCN(C)CC3)c(F)cc3c(=O)c(C(=O)O)cn1c23` [Levofloxacin, levofloxacin, reference compound]: the IC50 in data set [2] is 71.1 ± 4.98 µM; in [3], 76.3 ± 6.51 µM; in [11] (Homo sapiens, A549, HepG2, MCF-7, PC-3, HeLa, read-out: IC50 proliferation of the five cancer cells), greater than 70 µM; in data set [5] it was greater than 100 µM; in data set [6], greater than 100 µM; in [7], 64.2 ± 5.67 µM. This molecule returned an IC50 in data set [10] greater than 100 µM.
